Publication PMC6341082 (Translational Psychiatry, 2019)

Columns and labels:
[1] = test system: Adnp+/- mice; test: Object recognition test; format: in vivo, mouse; conditions: male Adnp+/+ mice (Supplemental Fig. S2A, B)
Experimental: Experiments were performed as previously described[8],[30],[40]. Three–six-month-old male mice were used, and NAP-CB was administered once daily (0.5 µg/5 µl/mouse) for one month. The behavioral assays were then initiated together with a continuous drug application. For detailed description of the object recognition test and the social approach task, please see supplemental materials and methods. In the odor discrimination test, odors were presented on a suspended cotton swab to the test mouse placed into the clean cage with fresh shavings. Each mouse was tested during three consecutive 2-min periods for each odor, with 2-min intervals between presentations. The time that the mouse smelled the swab was recorded (beginning whenever the animal oriented its nostrils toward the cotton swab, within 2 cm or less)[8],[30]. […] Data are expressed as mean ± SEM.
Object recognition: The test included two consecutive days of habituation (5 min per day) and the experimental day which consisted of the three phases. […] The time spent sniffing/touching each object was measured. Mouse movement and exploratory behavior were tracked and recorded using the EthoVision XT video tracking system and software (Noldus Inc. Leesburg, VA). […]

[2] = test system: Adnp+/- mice; test: Social approach task (social recognition and social memory); format: in vivo, mouse
Experimental: (§1) Experiments were performed as previously described[8],[30],[40]. Three–six-month-old male mice were used, and NAP-CB was administered once daily (0.5 µg/5 µl/mouse) for one month. The behavioral assays were then initiated together with a continuous drug application. For detailed description of the object recognition test and the social approach task, please see supplemental materials and methods. In the odor discrimination test, odors were presented on a suspended cotton swab to the test mouse placed into the clean cage with fresh shavings. Each mouse was tested during three consecutive 2-min periods for each odor, with 2-min intervals between presentations. The time that the mouse smelled the swab was recorded (beginning whenever the animal oriented its nostrils toward the cotton swab, within 2 cm or less)[8],[30]. The hanging wire test measuring the strength of the mouse paws by using the latency to fall off an inverted cage lid (placed 50 cm above the surface) onto a soft bedding (maximum time 90 sec), was performed as previously described[5],[40]. Data are expressed as mean ± SEM.
Social approach: A plexiglas box was divided into three adjacent chambers, each 20 cm (length) × 40.5 cm (width) × 22 cm (height), separated by two removable doors. Steel wire pencil cups (10.16 cm (diameter), 10.8 cm (height)), www.kitchen-plus.com, were used as both containment for the target mice and as inanimate objects (weights prevented the mice from overturning the cups). […] The next day, each subject mouse was tested in an experiment with three phases, each 10-min long (measured with a simple timer): I and II, the habituation phases (ensuring no bias), and III, the experimental phase. […] Mouse movement and exploratory behavior were tracked and recorded using the EthoVision XT video tracking system and software (Noldus Inc. Leesburg, VA). The discrimination capacity (social memory) was analyzed using the formula: D2 = (b-a)/(b+a), where ‘a’ designated the time of exploration of the familiar mouse and 'b' designated the time of exploration of the novel mouse.

[3] = test system: Adnp+/- mice; test: Odor discrimination test; format: in vivo, mouse
Experimental: as §1, with “Three–six-month-old male mice were used, and NAP-CB was administered once daily (0.5 µg/5 µl/mouse) for one month.” left out

[4] = test system: Adnp+/- mice; test: Hanging wire test; format: in vivo, mouse; conditions: significant vs vehicle
Experimental: as §1, with “Three–six-month-old male mice were used, and NAP-CB was administered once daily (0.5 µg/5 µl/mouse) for one month.” left out

[5] = test system: hippocampus of Adnp+/- mice; test: Diffusion tensor imaging (DTI) MRI of chronically treated brains; format: in vivo, mouse
From the text: Seven–eight-month-old male mice underwent MRI on a 7.0 T/30 spectrometer (Bruker, Rheinstetten, Germany) using a volume coil for excitation and a rat quadrature coil for acquisition. The MRI protocol used here was the DTI.
DTI was obtained using a diffusion-weighted (DW) spin-echo echo-planar-imaging (EPI) pulse sequence with the following parameters: TR/TE = 4000/25 ms, Δ/δ = 10/4.5 ms, 4 EPI segments and 32 non-collinear gradient directions with a single b value (1000 sec/mm^2) and two images with b value of 0 sec/mm^2 (referred to as b0). Geometrical parameters were: 24 slices of 0.5 mm thickness, matrix size of 128 × 128 and FOV of […]). The imaging protocol was repeated three times for signal averaging and to compensate for acquisition where significant head motion was observed. Image analysis included DTI analysis of the DW-EPI images to produce the mean diffusivity (MD) and fractional anisotropy (FA) indexed maps following a two-way ANOVA with Tukey post-hoc test.

[6] = test system: Slc17a7 gene encoding VGLUT1; test: Gene expression analysis (quantitative RT-PCR); format: in vivo, mouse
Experimental: Hippocampal and cerebral cortical RNA of mouse that were 7.5-month-old were extracted using TRI Reagent® (T9424, Sigma-Aldrich, MO, USA). A volume of 1 μg RNA/sample was then subjected to reverse transcription (RT) using qScript cDNA Synthesis Kit (Quanta Biosciences, Gaithersburg, MD, USA). Further Real-time PCR analysis was performed using PerfeCta^TM SYBR® Green FastMix^TM, Low ROX^TM (Cat. No. 95074–012, Quanta Biosciences, Gaithersburg, MD, USA) and the QuantStudio 12 K Flex Real-Time PCR System (Thermo Fisher Scientific, Waltham, MA, USA). RNA expression levels were determined using specific mouse primers: Slc17a7 gene encoding VGLUT1, sense 5′-[…]-3′, anti-sense 5′-[…]-3′. Hypoxanthine-guanine phosphoribosyltransferase (Hprt) was selected as a stable reference gene with appropriate primers for mouse, sense 5′-[…]-3′, anti-sense 5′-[…]-3′. Results are presented as 2^-ΔCT[42].

[7] = test system: VGLUT1; test: Immunohistochemistry; format: in vivo, mouse; conditions: male Adnp+/- mice
Experimental: Immunohistochemistry was carried out as previously described. Briefly, paraffin sections were deparaffinized, rehydrated in graded alcohols, and antigen retrieval was performed with citrate buffer pH 6. Endogenous peroxidase was blocked with 3% H2O2 in methanol and was followed by incubation in the appropriate blocking buffer for 30 min. Sections were incubated overnight at 4 °C with the primary antibodies against VGLUT1 (Santa Cruz Biotechnology, sc-13320). The secondary antibody used was Rabbit Anti-Goat IgG (EMD Millipore, AP106B). Immunoreactions were visualized with the aim of Avidin-Peroxidase (Sigma- Aldrich Chemical), and 3,3′-Diaminobenzidine (DAB, brown color, Sigma-Aldrich Chemical) was utilized as chromogen. Sections were then counterstained with hematoxylin (light blue color).
Sections were further examined under optical microscope Zeiss Axioplan-2 with the aid of a CCD camera (Nikon DS-5M) for observations of the slides. In average, 25 optical fields were examined from each group under a magnification of ×40. Measurements were performed with Image J software (1.43 u) in the areas of the hippocampus and the cortex. The results were expressed as area/mm^2 (as previously described[14]), representing the area of DAB positive signal in each photo divided by the total area of the same photo. An additional parameter measured was the Integrated Density, calculating and displaying […]: the product of Area and Mean Gray Value.

[8] = test system: patients; conditions: cited from earlier work
From the text: Together, these studies attest to preclinical efficacy, holding a promise for clinical effectiveness. […] Nevertheless, in a study performed in severely affected individuals suffering from progressive supranuclear palsy (PSP), belonging to the family of rapidly progressing frontotemporal neurodegener ...

[9] = test system: Adnp deficiency in mice; parameters: method as in PMID 26782054; conditions: cited from earlier work

With NAPVSIPQ the “object recognition, relative discrimination, short and long retention choice phases, NAP- vs CB-treated” value [1] was “no significant differences”, the “social recognition, sniffing time mouse vs cup” value ([2]; NAP-treated Adnp+/- male mice, p < 0.001 vs. cup) was “significant differences between sniffing time of the cup (c) and mouse (M)” and the “social memory (D2, novel vs familiar mouse)” value ([2]; female Adnp+/- mice, n = 3-4 per group, p < 0.001 vs vehicle (Supplemental Fig. S2D)) was “improved social memory”. For the same substance, the “social recognition, preference mouse vs object” value ([2]; females (Supplemental Fig. S2C), n = 3-4 per group) was “significant preference to mice rather than objects”, the “total odor sniffing time (AUC)” value ([3]; female Adnp+/- mice, NAP vs CB vehicle, p < 0.05) was “significantly reduced” and the “odor discrimination ability (novel vs. familiar odor), differences between experimental groups” value ([3]; females (Supplemental Fig. S2E)) was “no significant differences”. The “total time spent with the different odors (AUC)” value ([3]; male Adnp+/- mice, NAP vs CB vehicle, p < 0.05) was “significantly increased”, the “odor discrimination ability (novel vs. familiar odor), differences between experimental groups” value ([3]; males) was “no significant differences were observed between experimental groups” and the “hanging wire test, latency to fall” value ([4]; female Adnp+/- mice (Supplemental Fig. S2F)) was “ameliorating this behavior”. The “hanging wire test, latency to fall” value ([4]; male Adnp+/- mice, maximum time 90 sec) was “amelioration”, the “hippocampal mean diffusivity (MD), NAP- vs CB-treated” value ([5]; male Adnp+/+ mice (Supplemental Fig. S3A)) was “no significant differences in MD” and the “hippocampal fractional anisotropy (FA)” value ([5]; male Adnp+/+ mice (Supplemental Fig. S3B)) was “not affected”. For the same substance, the “hippocampal mean diffusivity (MD), effect on increase in Adnp+/-” value ([5]; male Adnp+/- mice, 7-8 months old, -1.84 mm from Bregma, n = 4-6 per group) was “although insignificant, was slightly reduced”, the “cerebral cortex VGLUT1 expression (reduced in Adnp+/-)” value ([6]; female Adnp+/- mice, n = 3-4 per group (Supplemental Fig. S4B)) was “no effect” and the “hippocampal VGLUT1 gene expression” value ([6]; females, n = 3-4 per group (Supplemental Fig. S4A)) was “not affected”. The “VGLUT1 transcript, cerebral cortex” value ([6]; male Adnp+/- mice, 2^-ΔCT normalized to Hprt, n = 4 per group) was “small, albeit significant decrease”, the “Slc17a7 (VGLUT1) gene expression, hippocampus (decrease in Adnp+/-)” value ([6]; male Adnp+/- mice, 7.5-month-old, 2^-ΔCT normalized to Hprt, n = 4 per group) was “completely reversed” and the “VGLUT1 protein, intensity (Integrated Density), cortex” value [7] was “trend of improvement”. The “VGLUT1 protein, area counting (area/mm^2), hippocampus” value ([7]; five animals per group, technical replicates, p < 0.001 vs CB) was “full protection”, the “VGLUT1 protein, area counting (area/mm^2), cerebral cortex” value ([7]; five animals per group, technical replicates, p < 0.05 vs CB) was “full protection” and the “VGLUT1 protein, intensity (Integrated Density), hippocampus” value ([7]; p < 0.001 vs CB) was “significant”. For the same substance, the cognitive scores ([8]; amnestic mild cognitive impairment patients) was “increase in cognitive scores”, the “functional activities of daily living” value ([8]; schizophrenia patients) was “protection of functional activities of daily living” and the “efficacy in progressive supranuclear palsy (PSP)” value ([8]; severely affected individuals suffering from PSP) was “did not show efficacy”.

For SKIP, the impaired axonal transport [9] is listed as “ameliorated”.
